From patent publication US4939159A, “Azaindole derivatives useful as cholesterol biosynthesis inhibitors” (Sandoz Pharm. Corp., priority 1989, dated 1990)

Tested on: 3β-hydroxysterol synthesis
Experiment: Test B. In Vivo Cholesterol Biosynthesis Inhibition Test
Settings: Rattus norvegicus, po; rats, orally administered; read-out: ED50 (dose producing 50% inhibition of 3β-hydroxysterol synthesis)
Method: Test B. In Yivo Cholesterol Biosynthesis Inhibition Test:
In this test the rats are orally administered the test substance (compound of Formula I) at a dose of 0.025-200 mg/kg body weight. The obtained ED50 the dose of the test substance observed or calculated to produce a 50% inhibition of 3β -hydroxysterol synthesis.

## CC[C@H](C)C(=O)O[C@H]1C[C@@H](C)C=C2C=C[C@H](C)[C@H](CC[C@@H]3C[C@@H](O)CC(=O)O3)[C@H]21 [Mevinolin]
  ED50: 0.38 mg/kg
